The source of these data is ChEMBL document CHEMBL3507680, “University of Dundee, Gates Library screen for HepG2 cell viability”.

The nature of the data set: Human HepG2 cell viability assay in 384 well format. The note with it: HepG2 cells, read-out: Inhibition. More on the design: dose 125 nL, time 70.5 hour; cytotoxicity at 70.5 h: concentration not given beside the values. The class given is toxicity, cell-based.
For the compound `COc1ccc(-n2ncc3c2NC(=O)CSC3C(C)C)cc1` (stereo not given), the cytotoxicity at 70.5 h is -3.9%.
The same measure for `O=C(CN1C(=O)CC2(CCCC2)C1=O)NCCc1nccs1`: -14.1%; for `Cc1nn(-c2ccc(C(=O)O)cc2)c2c1C(c1ccsc1)SCC(=O)N2` (stereo not given): -1.43%.
In the case of `COCCn1ccc2c(C(=O)Nc3nc4c(s3)CCC4)cccc21`, the cytotoxicity at 70.5 h was -1.37%.
As to `CC(C)CC1SCC(=O)Nc2c1cnn2-c1ccccc1F` (stereo not given), the cytotoxicity at 70.5 h is -22.8%.
With `CC(C)Cn1cc(C(=O)NC2CCS(=O)(=O)C2)c2ccccc2c1=O` (stereo not given), the cytotoxicity at 70.5 h is -13.3%.
With `Cc1cc(C)nc(N2CCC(C(=O)Nc3n[nH]c(C(C)C)n3)CC2)n1`, the cytotoxicity at 70.5 h is -11.5%.
Take `Cn1ccc2cc(C(=O)Nc3nc[nH]n3)ccc21`: the cytotoxicity at 70.5 h worked out at 15.8%.
As to `Cc1cc(C)nc(-n2nc(C)c3c2NC(=O)CSC3c2cnn(C)c2)n1` (stereo not given), the cytotoxicity at 70.5 h is -31.4%.
To `CC(C)c1nn2c(-c3cnn(C)c3)nnc2s1` belongs -9.47%.
`Cn1ccc2ccc(C(=O)Nc3nc[nH]n3)cc21`: the cytotoxicity at 70.5 h is 13.7%.
As for `Cc1cc(C)nc(N2CCC(C(=O)Nc3ncc[nH]3)CC2)n1`, the cytotoxicity at 70.5 h is -7.67%.
`CN1CCN(CCCNC(=O)CCc2nc3cc(Br)cnc3[nH]2)CC1`: the cytotoxicity at 70.5 h was -31%.
To `COCc1nnc(NC(=O)c2cn(C(C)C)c3ccc(OC)cc23)s1` belongs -10.1%.
Turning to `Cc1cc(O)cc(=O)n1CCCC(=O)Nc1n[nH]c2cc(Br)ccc12`, the cytotoxicity at 70.5 h was -13.4%.
The same measure for `CC(C)C1SCC(=O)Nc2c1cnn2-c1ccc(F)cc1` (stereo not given): -1.99%; for `Cc1nn(-c2ncccn2)c2c1C(c1cnn(C)c1C)SCC(=O)N2` (stereo not given): -22.5%.
As to `CC(C)C1SCC(=O)Nc2c1c(O)nn2C1CCCC1` (stereo not given), the cytotoxicity at 70.5 h is -23.1%.
Take `O=c1c(CN2CCCCCC2)coc(O)c1CN1CCOCC1`: the cytotoxicity at 70.5 h is -2.1%.
For the compound `C[C@@H](O)CNC(=O)CCc1nc2cccnc2[nH]1`, the cytotoxicity at 70.5 h is -23.4%.
For `Cn1ccc2cc(C(=O)NC3CCS(=O)(=O)C3)ccc21` (stereo not given), the cytotoxicity at 70.5 h was -10.9%.
`COc1ccc2cc(NC(=O)CCNc3nc(C)cc(C)n3)cnc2c1`: the cytotoxicity at 70.5 h is -24.1%.
For the compound `Cc1ccc(S(=O)(=O)c2ncccc2CN2CCOCC2)cc1`, the cytotoxicity at 70.5 h is -17.9%.
As to `O=C1CCC(c2ccccc2)=NN1CN1CCCCCC1`, the cytotoxicity at 70.5 h is -14%.
As for `CC(C)CC1SCC(=O)Nc2c1cnn2C1CCCC1` (stereo not given), the cytotoxicity at 70.5 h was -18.7%.
To `Cc1c(C2SCC(=O)Nc3c2c(O)nn3C(C)C)cnn1C` (stereo not given) belongs -26.6%.
Regarding `CC(C)n1ncc2c1NC(=O)CSC2C(F)(F)F` (stereo not given), the cytotoxicity at 70.5 h is -21%.
`COc1ccc2cc(NC(=O)CCNc3ncccn3)cnc2c1`: the cytotoxicity at 70.5 h is -29.1%.
As for `O=C(NCCc1nccs1)c1n[nH]c2c1CCC2`, the cytotoxicity at 70.5 h was -11.1%.
As for `CC(C)c1sc(Br)nc1C(=O)NCc1ccco1`, the cytotoxicity at 70.5 h was determined as 32.2%.
As for `COc1cccc2c1ccn2CCNC(=O)CCNc1ncccn1`, the cytotoxicity at 70.5 h was -18%.
Turning to `CS(=O)(=O)N1CCN(C(=O)c2cc(-c3ccc(Br)s3)n[nH]2)CC1`, the cytotoxicity at 70.5 h is -10.2%.
The same measure for `Cc1cc(C)nc(N2CCC(C(=O)Nc3n[nH]c(C)n3)CC2)n1`: -7.75%; for `COc1ccccc1-c1cc(C(=O)Nc2nc[nH]n2)[nH]n1`: -12.9%; for `COc1ccc(CNC(=O)CCc2nnc3ccccn3c2=O)cc1`: 20.7%.
The same measure for `Cn1cc(NC(=O)C2CC(=O)N(c3n[nH]c4cccc(F)c34)C2)cn1` (stereo not given): -26.5%; for `O=C(C1CC(=O)N(c2n[nH]c3cc(Br)ccc23)C1)N1CCSCC1` (stereo not given): -9.09%.
To `Cn1cnc2cc(CCC(=O)Nc3n[nH]c(C4CCCO4)n3)ccc21` (stereo not given) belongs 1.89%; to `Cc1cc(-c2nn3c(C(C)C)nnc3s2)on1`, -10.1%.
As to `O=C(Cn1cnc2sccc2c1=O)NCCc1nnc2ccccn12`, the cytotoxicity at 70.5 h was -11.3%.
The same measure for `COCCn1cnc2ccc(NC(=O)CCCn3cccn3)cc2c1=O`: -7.81%; for `Cn1cc(C2SCC(=O)Nc3c2c(=O)[nH]n3C2CCOCC2)cn1` (stereo not given): 17.2%.
On to `CC(C)n1ccc2c(C(=O)NC3CN4CCC3CC4)cccc21` (stereo not given), for which the cytotoxicity at 70.5 h was -17.6%.
For the compound `CC(C)c1nc2cc(NC(=O)c3n[nH]c4c3CCC4)ccc2n1C`, the cytotoxicity at 70.5 h is -9.08%.
Turning to `COCCn1cnc2ccc(NC(=O)C3CC3)cc2c1=O`, the cytotoxicity at 70.5 h is -8.53%.
As for `COCCn1cnc2ccc(NC(=O)C(C)C)cc2c1=O`, the cytotoxicity at 70.5 h is -7.01%.
To `O=C(Nc1nc[nH]n1)c1cc(-c2ccc(F)cc2)n[nH]1` belongs -14.4%; to `Cc1nc(C(=O)N2CCN(S(C)(=O)=O)CC2)c(-c2ccccc2Cl)s1`, 16%.
As to `Cc1cc(C)n(-c2cccc(C(=O)Nc3n[nH]c(C4CCCO4)n3)c2)n1` (stereo not given), the cytotoxicity at 70.5 h is -8.19%.
For the compound `Cc1cc(C(=O)Nc2n[nH]c(C3CC3)n2)c2c(C)nn(C)c2n1`, the cytotoxicity at 70.5 h was determined as 25.6%.
Regarding `COc1ccc(CC(=O)Nc2ccc3ncn(C(C)C)c(=O)c3c2)cc1`, the cytotoxicity at 70.5 h was -5.16%.
Take `COc1ccc(CCC(=O)Nc2ccc3ncn(C)c(=O)c3c2)cc1`: the cytotoxicity at 70.5 h was -2.91%.
The same measure for `COc1cn(CC(=O)N2CCC(c3ccccc3)CC2)c(C)cc1=O`: 23.7%.
In the case of `COc1ccc2c(ccn2CCC(=O)Nc2n[nH]c(CC(C)C)n2)c1`, the cytotoxicity at 70.5 h amounted to 24%.
`Cc1[nH]nc(-c2ccc(F)cc2)c1CC(=O)NCC1CCOCC1`: the cytotoxicity at 70.5 h is -9.72%.
To `COc1ccc(NC(=O)c2nc(C)sc2C)cn1` belongs 28%; to `Cn1cnc2cc(CCC(=O)Nc3n[nH]c(C4CC4)n3)ccc21`, 17.9%; to `CC(C)Cc1nc(NC(=O)c2cccnc2)n[nH]1`, -14.7%.
For `COC(=O)CNC(=O)c1nc(Br)sc1C(C)C`, the cytotoxicity at 70.5 h came out at 42.9%.
For the compound `O=C1CSC(c2ccc(Cl)cc2Cl)c2c(n(C3CCOCC3)[nH]c2=O)N1` (stereo not given), the cytotoxicity at 70.5 h is -23.1%.
Take `COc1ccc(C(=O)Nc2n[nH]c(C3CCCO3)n2)cc1` (stereo not given): the cytotoxicity at 70.5 h was found to be 26.5%.
Turning to `COc1ccc2c(ccn2CC(=O)Nc2n[nH]c(CC(C)C)n2)c1`, the cytotoxicity at 70.5 h was -11.7%.
Turning to `CCN1CCCC1CNC(=O)Cc1c(C)n[nH]c1-c1ccc(OC)cc1` (stereo not given), the cytotoxicity at 70.5 h was determined as 24.8%.
In the case of `O=C(Nc1ccc(CCN2CCC(O)CC2)cc1)C1CCCCC1`, the cytotoxicity at 70.5 h was -2.92%.
The same measure for `O=C(c1ccc(Cn2ccccc2=O)o1)N1CCC2(CC1)OCCO2`: -2.65%.
As for `CN(C)C(=O)c1cccc(CN2CCN(CCO)CC2)c1`, the cytotoxicity at 70.5 h was 38.5%.
Consider `CC(O)CN1CCN(Cc2cccc(C(=O)N3CCCCC3)c2)CC1` (stereo not given), for which the cytotoxicity at 70.5 h stood at 17.1%.
As to `CC(O)CN1CCC(CN(C)Cc2cccc(C(=O)N(C)C)c2)CC1` (stereo not given), the cytotoxicity at 70.5 h worked out at 12.1%.
Take `CC(C)c1nc2c(n1C)CCN(Cc1nc(-c3ccco3)no1)C2`: the cytotoxicity at 70.5 h is -7.27%.
Turning to `COCCc1noc(CN2CCOC(CN(C)C)C2)n1` (stereo not given), the cytotoxicity at 70.5 h was -8.08%.
Turning to `COc1c(CNC2CCc3ccccc32)c(C(C)C)nn1C` (stereo not given), the cytotoxicity at 70.5 h was -16.4%.
Consider `CN(C)CC1CN(Cc2nc(-c3cccnc3)no2)CCO1` (stereo not given), for which the cytotoxicity at 70.5 h was -12.3%.
With `COc1c(CNC2CCOc3c(Cl)cccc32)c(C(C)C)nn1C` (stereo not given), the cytotoxicity at 70.5 h is 11.4%.
For the compound `CCCc1nc(C(C)(C)NC(=O)C2CC(=O)N(CC)C2)no1` (stereo not given), the cytotoxicity at 70.5 h is -13%.
For `NC(=O)C1CCN(C(=O)c2ccn(-c3ccc(F)cc3)n2)CC1`, the cytotoxicity at 70.5 h worked out at 7.95%.
Turning to `CCc1nc(C)c(C(=O)NCCNC(=O)Cc2cccc(F)c2)s1`, the cytotoxicity at 70.5 h is -6.24%.
On to `CC(C)(C)c1nc(C(C)(C)NC(=O)C2CC(=O)N(CC3CC3)C2)no1` (stereo not given), for which the cytotoxicity at 70.5 h is -1.01%.
On to `COc1cc(CNCC(O)c2ccccc2F)cc2c1OCO2` (stereo not given), for which the cytotoxicity at 70.5 h was -14%.
`CCCc1nc(C(C)(C)NC(=O)C2CC(=O)N(C3CCCC3)C2)no1` (stereo not given): the cytotoxicity at 70.5 h was -11.9%.
As to `COc1c(CNCCNC(=O)c2ccc(C)c(F)c2)c(C)nn1C`, the cytotoxicity at 70.5 h was -4.84%.
The same measure for `CCOc1cc(C)nc(N2CCN(C(=O)c3cc[nH]n3)CC2)n1`: -3.5%; for `Cc1nc(C(=O)N2CCCC(c3cc(C(F)(F)F)[nH]n3)C2)c[nH]1` (stereo not given): -6.23%.
To `Cc1ccc(C(=O)N2CCCC(c3cc(C(F)(F)F)[nH]n3)C2)o1` (stereo not given) belongs -5.23%; to `Cc1ccc(C(=O)NS(=O)(=O)c2ccccc2F)c(=O)[nH]1`, -1.46%; to `Cc1ccc(CC(=O)N2CCOCC2c2ncon2)cc1` (stereo not given), -5.42%.
Regarding `CC1CCN(CCCNC(=O)NC(C)c2nncn2C)CC1` (stereo not given), the cytotoxicity at 70.5 h was -3.78%.
As for `Cn1ccc2c(C(=O)N3CCCC(c4nnc[nH]4)C3)cccc21` (stereo not given), the cytotoxicity at 70.5 h is 4.32%.
Take `CCc1nc(C2CCCN2CC(=O)NCCc2ccsc2)no1` (stereo not given): the cytotoxicity at 70.5 h is 0.0583%.
On to `CCOC1CCCN(C(=O)c2nn(-c3ccccc3F)cc2O)C1` (stereo not given), for which the cytotoxicity at 70.5 h was -3.95%.
`C=C(Br)CN(C)C1CCN(CCc2ccccn2)CC1`: the cytotoxicity at 70.5 h is -6.85%.
The same measure for `Cc1nc(CN2CCCC(N(C)CC3(O)CCCCC3)C2)no1` (stereo not given): 0.0355%; for `CCc1noc(CN(C)CC(c2cccs2)N2CCOCC2)n1` (stereo not given): -1.63%; for `Cc1noc(CN(C)CC(c2cccs2)N2CCOCC2)n1` (stereo not given): -4.96%.
As for `N#Cc1cc(F)ccc1CN1CCCCC1Cn1cccn1` (stereo not given), the cytotoxicity at 70.5 h was -1.56%.
Take `N#Cc1ccc(CN2CCCC2Cn2cccn2)cc1` (stereo not given): the cytotoxicity at 70.5 h was 2.25%.
As for `CC1COCCN1C(=O)Nc1cnc2c(cnn2C(C)C)c1` (stereo not given), the cytotoxicity at 70.5 h is -2.52%.
Take `Cc1ncc(CN(C)CCO)c2cc(C(=O)c3ccc(Br)cc3)oc12`: the cytotoxicity at 70.5 h was -15.5%.
Take `COc1cc(CNCC(O)c2ccccc2)cc2c1OCO2` (stereo not given): the cytotoxicity at 70.5 h came to 3.15%.
With `COc1c(CNCCNC(=O)c2ccccc2)c(C)nn1C`, the cytotoxicity at 70.5 h was -1.1%.
In the case of `COc1c(CNCCNC(=O)c2cccc(C)c2)c(C)nn1C`, the cytotoxicity at 70.5 h was found to be 3.54%.
